Reference: ChEMBL document CHEMBL1201862, “PubChem BioAssay data set” (2004)
Active and inactive are the calls of the source.

Key:
Genome polyprotein [1] = molecular target: Genome polyprotein (Hepatitis C virus, UniProt Q2Q167); experiment: disruption of hepatitis C core self-association – biochemical, TR-FRET, dose response (AID 2159); design: species or system Hepacivirus hominis;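 note: blocks dimerization of HCV core protein measured by TR-FRET between tagged core106 pairs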
[2] = A High Throughput Confirmatory Assay used to Identify Novel Compounds that Inhibit Mycobacterium Tuberculosis in the absence of Glycerol.; type: functional
[3] = microbe, parasite or virus in culture; type: functional; details: Mycobacterium tuberculosis
[4] = THP-1 cell cytotoxicity, dose response, cytotoxicity control for non-replicating M. tuberculosis project (AID 489025); type: functional
[5] = Luminescence Cell-Based Dose Retest to Confirm Inhibitors of Cancer Stem Cells. [Related pubchem assays (depositor defined):AID2717, AID2721]; type: functional; details: Homo sapiens
cells = type: functional
Vero = experiment: viability of Vero cells under compound – cytotoxicity control for flavivirus capping enzyme inhibitors (AID 588742); type: functional; details: Chlorocebus sabaeus
Genome polyprotein [6] = molecular target: Genome polyprotein (dengue virus type 2, UniProt P29990); experiment: flavivirus cap methylation enzyme inhibition – biochemical, confirmation dose response, primary screen (AID 588689); type: functional
[7] = molecular target: DNA (cytosine-5)-methyltransferase 1 (Homo sapiens, UniProt P26358); experiment: inhibition of DNA methylation by DNMT1 – biochemical, fluorescent molecular beacon, confirmation (AID 602386); type: functional
[8] = molecular target: Matrix metalloproteinase-14 (Homo sapiens, UniProt P50281); experiment: Dose Response confirmation of uHTS hits for a small molecule inhibitors of MT1-MMP activation in a fluorescence assay set 2.; type: functional
Protein Tat = molecular target: T1, Protein Tat (Human immunodeficiency virus type 1 group M subtype B (isolate HXB2)(HIV-1), UniProt P04608); type: functional;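 note: tat binding to TAR RNA read out by fluorescence polarization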
T1 sequence (P04608 whole entry): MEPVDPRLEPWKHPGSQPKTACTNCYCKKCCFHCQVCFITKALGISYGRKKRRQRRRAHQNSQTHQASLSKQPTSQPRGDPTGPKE

[9] = viability loss in THP-1 monocytes – THP-1 cells, cytotoxicity control for Vif-APOBEC3G degradation inhibitor project, dose response (AID 1117359); type: functional; details: THP-1
Caspase-3 = molecular target: T2, Caspase-3 (Homo sapiens, UniProt P42574); experiment: inhibition of recombinant caspase-3 activity – biochemical, luminescence, set 2, selectivity assay for SENP protease inhibitor project, SAR follow-up (AID 588599); type: functional
T2 sequence (P42574 whole entry): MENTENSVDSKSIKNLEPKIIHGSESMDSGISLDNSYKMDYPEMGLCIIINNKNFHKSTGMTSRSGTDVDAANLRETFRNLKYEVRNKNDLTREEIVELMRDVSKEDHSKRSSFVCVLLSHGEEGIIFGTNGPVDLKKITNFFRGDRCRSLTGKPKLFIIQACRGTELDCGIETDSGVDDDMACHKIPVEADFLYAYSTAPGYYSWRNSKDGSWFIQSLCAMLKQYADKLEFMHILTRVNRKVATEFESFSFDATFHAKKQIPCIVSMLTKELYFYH

[10] = molecular target: T3, Sentrin-specific protease 8 (Homo sapiens, UniProt Q96LD8); experiment: inhibition of sentrin protease 8 – biochemical, luminescence, set 2, SAR follow-up (AID 588601); type: functional
T3 sequence (Q96LD8 whole entry): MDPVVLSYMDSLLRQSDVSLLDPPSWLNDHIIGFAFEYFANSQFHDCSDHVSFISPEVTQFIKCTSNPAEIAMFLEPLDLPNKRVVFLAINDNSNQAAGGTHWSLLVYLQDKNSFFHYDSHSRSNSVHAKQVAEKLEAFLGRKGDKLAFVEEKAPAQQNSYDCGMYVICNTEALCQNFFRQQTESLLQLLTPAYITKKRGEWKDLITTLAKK

[11] = molecular target: T4, Sentrin-specific protease 7 (Homo sapiens, UniProt Q9BQF6); experiment: inhibition of human SENP7 cleavage activity – biochemical, luminescence, set 2, SAR follow-up (AID 588600); type: functional
T4 sequence (Q9BQF6 whole entry): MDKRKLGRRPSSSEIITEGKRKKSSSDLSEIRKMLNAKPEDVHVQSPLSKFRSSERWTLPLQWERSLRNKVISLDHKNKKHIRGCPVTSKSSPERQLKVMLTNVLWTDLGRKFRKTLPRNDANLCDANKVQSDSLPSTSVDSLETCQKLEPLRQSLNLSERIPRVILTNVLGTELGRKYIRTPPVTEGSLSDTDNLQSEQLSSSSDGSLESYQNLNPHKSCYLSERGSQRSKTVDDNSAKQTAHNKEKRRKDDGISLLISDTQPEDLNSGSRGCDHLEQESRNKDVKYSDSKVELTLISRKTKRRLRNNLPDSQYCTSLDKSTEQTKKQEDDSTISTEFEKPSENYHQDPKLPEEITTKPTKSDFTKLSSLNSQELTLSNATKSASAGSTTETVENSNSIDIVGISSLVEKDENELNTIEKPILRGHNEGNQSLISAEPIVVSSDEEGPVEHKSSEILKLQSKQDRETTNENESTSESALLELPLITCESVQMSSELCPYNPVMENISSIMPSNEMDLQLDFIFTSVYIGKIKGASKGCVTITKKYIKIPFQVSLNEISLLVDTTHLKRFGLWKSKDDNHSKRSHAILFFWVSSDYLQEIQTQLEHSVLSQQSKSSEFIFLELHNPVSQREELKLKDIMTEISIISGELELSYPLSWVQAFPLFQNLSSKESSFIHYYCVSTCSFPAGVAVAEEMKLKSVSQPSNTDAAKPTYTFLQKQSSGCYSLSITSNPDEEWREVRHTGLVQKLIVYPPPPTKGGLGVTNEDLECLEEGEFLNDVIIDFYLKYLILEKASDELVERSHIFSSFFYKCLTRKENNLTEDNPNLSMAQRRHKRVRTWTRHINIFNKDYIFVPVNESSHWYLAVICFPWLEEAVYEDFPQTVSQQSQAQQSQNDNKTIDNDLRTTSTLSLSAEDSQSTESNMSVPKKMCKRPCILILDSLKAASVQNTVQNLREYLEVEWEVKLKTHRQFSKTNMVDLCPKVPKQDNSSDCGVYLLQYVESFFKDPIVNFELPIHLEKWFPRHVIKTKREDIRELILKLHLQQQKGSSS

[12] = molecular target: T5, Sentrin-specific protease 6 (Homo sapiens, UniProt Q9GZR1); experiment: inhibition of human SENP6 catalytic domain – biochemical, luminescence, set 2, SAR follow-up (AID 588598); type: functional
T5 sequence (Q9GZR1 whole entry): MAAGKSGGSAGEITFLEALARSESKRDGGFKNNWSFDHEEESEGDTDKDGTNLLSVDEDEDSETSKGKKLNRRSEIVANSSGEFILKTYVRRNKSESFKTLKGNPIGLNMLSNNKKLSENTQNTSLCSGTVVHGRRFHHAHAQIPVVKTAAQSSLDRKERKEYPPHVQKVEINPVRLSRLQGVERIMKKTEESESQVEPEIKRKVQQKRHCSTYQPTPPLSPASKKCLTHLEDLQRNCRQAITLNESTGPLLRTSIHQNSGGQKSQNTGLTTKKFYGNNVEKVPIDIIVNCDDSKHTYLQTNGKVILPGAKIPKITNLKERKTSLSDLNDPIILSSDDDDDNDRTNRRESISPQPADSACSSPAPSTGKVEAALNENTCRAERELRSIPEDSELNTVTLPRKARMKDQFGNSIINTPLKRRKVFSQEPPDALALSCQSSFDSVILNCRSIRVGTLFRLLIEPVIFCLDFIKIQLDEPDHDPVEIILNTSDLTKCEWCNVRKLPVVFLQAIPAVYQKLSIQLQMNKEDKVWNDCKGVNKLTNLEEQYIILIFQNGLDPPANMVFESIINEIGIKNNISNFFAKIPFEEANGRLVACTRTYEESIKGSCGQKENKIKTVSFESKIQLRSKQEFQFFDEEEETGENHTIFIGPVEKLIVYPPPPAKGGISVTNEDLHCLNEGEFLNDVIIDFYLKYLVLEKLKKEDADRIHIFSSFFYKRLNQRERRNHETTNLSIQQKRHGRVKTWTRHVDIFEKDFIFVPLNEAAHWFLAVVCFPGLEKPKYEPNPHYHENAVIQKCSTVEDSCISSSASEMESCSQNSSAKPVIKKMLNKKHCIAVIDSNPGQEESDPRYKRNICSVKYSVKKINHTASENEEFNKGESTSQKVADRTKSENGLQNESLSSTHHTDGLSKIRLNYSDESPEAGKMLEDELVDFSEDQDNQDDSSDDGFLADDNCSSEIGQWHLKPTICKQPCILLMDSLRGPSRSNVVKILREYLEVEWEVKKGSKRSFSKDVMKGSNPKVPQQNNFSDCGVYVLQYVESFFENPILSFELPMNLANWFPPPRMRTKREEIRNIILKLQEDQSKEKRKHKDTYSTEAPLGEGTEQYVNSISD

[13] = A Cell Based Secondary Assay to Explore Cytotoxicity in THP-1 Cells of Compounds that Modulate Mycobacterium tuberculosis in Media Containing Glycerol versus Media without Glycerol (2).; type: functional
[14] = Vero cell cytotoxicity, cytotoxicity control for M. tuberculosis inhibitor project, purified and synthesized samples, set 3 (AID 504684); type: functional
[15] = A Cell Based Secondary Assay to Explore Cytotoxicity in HepG2 Cells of Compounds that Modulate Mycobacterium tuberculosis in Media Containing Glycerol versus Media without Glycerol (2).; type: functional
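Throughout, for AC50: cells exposed to compound for roughly 70 hours or longer before luminescence read.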

Chain of DNA (cytosine-5)-methyltransferase 1 (P26358 whole entry): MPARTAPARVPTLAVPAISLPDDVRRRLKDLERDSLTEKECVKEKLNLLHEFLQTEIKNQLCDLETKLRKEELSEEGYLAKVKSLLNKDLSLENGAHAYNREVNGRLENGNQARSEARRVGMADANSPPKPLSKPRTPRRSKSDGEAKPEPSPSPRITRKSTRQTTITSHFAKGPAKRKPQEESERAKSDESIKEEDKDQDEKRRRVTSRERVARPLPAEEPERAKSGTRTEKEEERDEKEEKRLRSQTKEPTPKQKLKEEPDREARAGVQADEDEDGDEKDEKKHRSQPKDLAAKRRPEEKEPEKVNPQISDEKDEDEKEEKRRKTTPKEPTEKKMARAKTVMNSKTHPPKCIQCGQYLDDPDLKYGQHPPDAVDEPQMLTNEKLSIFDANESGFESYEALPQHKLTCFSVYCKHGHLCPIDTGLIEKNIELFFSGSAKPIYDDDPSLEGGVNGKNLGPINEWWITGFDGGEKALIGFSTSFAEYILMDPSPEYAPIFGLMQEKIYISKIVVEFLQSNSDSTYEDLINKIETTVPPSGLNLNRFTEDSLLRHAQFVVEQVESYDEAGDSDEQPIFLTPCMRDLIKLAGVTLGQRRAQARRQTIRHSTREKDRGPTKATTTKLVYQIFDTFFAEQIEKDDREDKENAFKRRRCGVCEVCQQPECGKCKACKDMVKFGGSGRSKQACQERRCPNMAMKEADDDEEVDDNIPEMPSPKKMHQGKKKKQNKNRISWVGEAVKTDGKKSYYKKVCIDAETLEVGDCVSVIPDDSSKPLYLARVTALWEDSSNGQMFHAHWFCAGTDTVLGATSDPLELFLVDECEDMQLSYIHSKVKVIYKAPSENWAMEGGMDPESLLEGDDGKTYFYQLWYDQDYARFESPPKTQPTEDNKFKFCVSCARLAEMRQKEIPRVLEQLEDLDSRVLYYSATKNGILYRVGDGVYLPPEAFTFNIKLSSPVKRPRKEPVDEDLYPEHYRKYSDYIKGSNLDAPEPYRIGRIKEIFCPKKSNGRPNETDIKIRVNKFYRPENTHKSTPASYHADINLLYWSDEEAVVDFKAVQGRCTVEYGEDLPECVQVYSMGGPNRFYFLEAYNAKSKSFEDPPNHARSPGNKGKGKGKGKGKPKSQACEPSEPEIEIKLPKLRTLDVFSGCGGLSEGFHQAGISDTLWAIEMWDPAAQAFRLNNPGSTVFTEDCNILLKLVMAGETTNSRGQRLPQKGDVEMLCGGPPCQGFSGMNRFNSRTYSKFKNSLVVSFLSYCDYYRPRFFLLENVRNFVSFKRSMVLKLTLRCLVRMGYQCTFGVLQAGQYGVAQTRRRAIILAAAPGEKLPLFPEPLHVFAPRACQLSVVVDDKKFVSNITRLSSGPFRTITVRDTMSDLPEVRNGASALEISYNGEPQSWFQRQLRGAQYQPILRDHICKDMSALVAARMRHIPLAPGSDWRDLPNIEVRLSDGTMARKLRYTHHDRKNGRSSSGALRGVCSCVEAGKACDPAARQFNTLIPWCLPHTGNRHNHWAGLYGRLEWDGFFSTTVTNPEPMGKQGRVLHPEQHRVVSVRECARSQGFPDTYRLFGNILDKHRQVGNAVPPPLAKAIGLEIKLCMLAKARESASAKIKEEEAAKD
Chain of Genome polyprotein (dengue virus type 2, UniProt P29990) (P29990 2492-3391 limits assumed): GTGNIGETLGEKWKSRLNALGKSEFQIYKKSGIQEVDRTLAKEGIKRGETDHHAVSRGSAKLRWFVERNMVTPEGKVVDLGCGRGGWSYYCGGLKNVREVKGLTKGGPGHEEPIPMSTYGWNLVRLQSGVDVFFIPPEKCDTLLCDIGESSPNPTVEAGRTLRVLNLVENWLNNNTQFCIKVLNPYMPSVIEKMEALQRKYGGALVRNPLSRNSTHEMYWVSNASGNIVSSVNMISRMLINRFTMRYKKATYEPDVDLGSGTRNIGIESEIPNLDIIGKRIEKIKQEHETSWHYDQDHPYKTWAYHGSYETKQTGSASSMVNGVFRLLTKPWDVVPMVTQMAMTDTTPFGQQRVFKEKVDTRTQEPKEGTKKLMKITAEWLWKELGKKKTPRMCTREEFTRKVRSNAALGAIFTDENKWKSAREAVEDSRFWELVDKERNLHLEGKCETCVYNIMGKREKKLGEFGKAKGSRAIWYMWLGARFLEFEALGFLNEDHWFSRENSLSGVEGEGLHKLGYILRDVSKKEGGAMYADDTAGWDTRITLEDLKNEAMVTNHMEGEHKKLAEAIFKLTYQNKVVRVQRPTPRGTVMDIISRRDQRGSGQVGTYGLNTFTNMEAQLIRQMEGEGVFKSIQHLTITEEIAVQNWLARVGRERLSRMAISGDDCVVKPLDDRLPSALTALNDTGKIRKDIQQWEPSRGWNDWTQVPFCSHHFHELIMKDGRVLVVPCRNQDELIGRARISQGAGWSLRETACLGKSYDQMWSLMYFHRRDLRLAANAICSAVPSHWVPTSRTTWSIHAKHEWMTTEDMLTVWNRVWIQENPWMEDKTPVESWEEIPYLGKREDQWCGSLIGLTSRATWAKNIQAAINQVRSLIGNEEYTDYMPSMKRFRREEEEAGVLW
Chain of Genome polyprotein (Hepatitis C virus, UniProt Q2Q167) (Q2Q167 whole entry): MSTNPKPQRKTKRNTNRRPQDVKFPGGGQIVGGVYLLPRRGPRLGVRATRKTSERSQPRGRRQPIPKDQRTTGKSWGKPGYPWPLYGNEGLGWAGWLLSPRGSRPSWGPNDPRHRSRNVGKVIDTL

| Structure (SMILES) | IC50 (Genome polyprotein [1]) | IC50 [2] | CC50 [3] | CC50 [4] | AC50 [5] | IC50 (cells) | CC50 (Vero) | IC50 (Genome polyprotein [6]) | IC50 [7] | IC50 [8] | IC50 (Protein Tat) | CC50 [9] | IC50 (Caspase-3) | IC50 [10] | IC50 [11] | IC50 [12] | CC50 [13] | CC50 [14] | CC50 [15] |
| --- | --- | --- | --- | --- | --- | --- | --- | --- | --- | --- | --- | --- | --- | --- | --- | --- | --- | --- | --- |
| Cn1cccc1/C=C1/C(=O)NC(=S)N(Cc2ccc(F)cc2)C1=O | > 49.8 µM (not active) | > 100 µM (active) | 23 µM (active) | 14.5 µM (active) | 1.18 µM (active) | 33.9 µM (active) | > 40 µM (active) | > 100 µM (active) | 3.55 µM (active) | 55.3 µM (inactive) | > 100 µM (active) | > 40 µM (active) |  |  |  |  |  |  |  |
| O=S(=O)(c1ccc2[nH]cc(/C=N\NC(=S)Nc3cccc(Cl)c3)c2c1)N1CCCCC1 |  |  |  |  |  |  |  |  |  |  |  |  | > 99 µM (inactive) | > 99 µM (inactive) | > 99 µM (inactive) | > 99 µM (inactive) |  |  |  |
| Oc1ccccc1/C=N/Nc1ccnc(SCc2ccccc2)n1 |  |  | > 40 µM (active) |  |  |  |  |  |  |  |  |  |  |  |  |  | 57.4 µM (active) | 26.7 µM (active) | 18.5 µM (active) |
